Results as given in PubChem BioAssay AID1963985 (Molecular Pharmacology Branch, DTP, NCI, 2024).

System: 252836-082-R-J2-PDC tumor spheroids, viability
Assay: Anticancer human tumor 252836-082-R-J2-PDC patient-derived head and neck squamous cell carcinoma cell line growth inhibition [PI3K]
Conditions: spheroids with HUVEC and MSC; for IC50: curve of first compound; for viability, T/C: stronger effect = lower value; active = viability on the fitted dose curve at most 10% of control; inactive = the rest
In short: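 Multi-cell spheroids combine tumor cells with HUVEC and human MSCs, treated with targeted agents alone or with inavolisib, alpelisib, duvelisib or copanlisib. Concentrations fall in half-log steps from at or near clinical Cmax, or from 10 microM where Cmax is unknown; viability read-out.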

[1] = second compound 0.0316 µM, first compound 0.0316 µM
[2] = second compound 0.0316 µM, first compound 0.1 µM
[3] = second compound 0.0316 µM, first compound 0.316 µM
[4] = second compound 0.0316 µM, first compound 1 µM
[5] = second compound 0.0316 µM, first compound 3.16 µM
[6] = second compound 0.0316 µM, first compound 10 µM
[7] = second compound 0.1 µM, first compound 0.0316 µM
[8] = second compound 0.1 µM, first compound 0.1 µM
[9] = second compound 0.1 µM, first compound 0.316 µM
[10] = second compound 0.1 µM, first compound 1 µM
[11] = second compound 0.1 µM, first compound 3.16 µM
[12] = second compound 0.1 µM, first compound 10 µM
[13] = second compound 0.316 µM, first compound 0.0316 µM
[14] = second compound 0.316 µM, first compound 0.1 µM
[15] = second compound 0.316 µM, first compound 0.316 µM
[16] = second compound 0.316 µM, first compound 1 µM
[17] = second compound 0.316 µM, first compound 3.16 µM
[18] = second compound 0.316 µM, first compound 10 µM
[19] = second compound 1 µM, first compound 0.0316 µM
[20] = second compound 1 µM, first compound 0.1 µM
[21] = second compound 1 µM, first compound 0.316 µM
[22] = second compound 1 µM, first compound 1 µM
[23] = second compound 1 µM, first compound 3.16 µM
[24] = second compound 1 µM, first compound 10 µM
[25] = second compound 3.16 µM, first compound 0.0316 µM
[26] = second compound 3.16 µM, first compound 0.1 µM
[27] = second compound 3.16 µM, first compound 0.316 µM
[28] = second compound 3.16 µM, first compound 1 µM
[29] = second compound 3.16 µM, first compound 3.16 µM
[30] = second compound 3.16 µM, first compound 10 µM
[31] = second compound 10 µM, first compound 0.0316 µM
[32] = second compound 10 µM, first compound 0.1 µM
[33] = second compound 10 µM, first compound 0.316 µM
[34] = second compound 10 µM, first compound 1 µM
[35] = second compound 10 µM, first compound 3.16 µM
[36] = second compound 10 µM, first compound 10 µM
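Also: spheroids exposed to agents for seven days before readout.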
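For viability, T/C in this document: percent of vehicle DMSO control viability so 100% = untreated growth.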

CC1(C)CCC(CN2CCN(c3ccc(C(=O)NS(=O)(=O)c4ccc(NCC5CCOCC5)c([N+](=O)[O-])c4)c(Oc4cnc5[nH]ccc5c4)c3)CC2)=C(c2ccc(Cl)cc2)C1 + Cc1nc(NC(=O)N2CCCC2C(N)=O)sc1-c1ccnc(C(C)(C)C(F)(F)F)c1
5.2 µM: IC50 (second compound 0.1 µM)
4.08 µM: IC50 (second compound 1 µM)
active: viability, T/C [6] 4.76% | viability, T/C [12] 2.88% | viability, T/C [18] 3.65% | viability, T/C [24] 3.88% | viability, T/C [30] 2.29% | viability, T/C [36] 1.57%
5.42 µM: IC50 (second compound 0.0316 µM)
4.13 µM: IC50 (second compound 0.316 µM)
inactive: viability, T/C [1] 91.7% | viability, T/C [2] 77.8% | viability, T/C [3] 96.2% | viability, T/C [4] 96.8% | viability, T/C [5] 89.8% | viability, T/C [7] 83.1% | viability, T/C [8] 87.5% | viability, T/C [9] 83.2% | viability, T/C [10] 80.9% | viability, T/C [11] 94.4% | viability, T/C [13] 92.8% | viability, T/C [14] 86.1% | viability, T/C [15] 75.5% | viability, T/C [16] 84% | viability, T/C [17] 64% | viability, T/C [19] 63.6% | viability, T/C [20] 63.6% | viability, T/C [21] 64% | viability, T/C [22] 65.6% | viability, T/C [23] 63.1% | viability, T/C [25] 59.1% | viability, T/C [26] 53.5% | viability, T/C [27] 46.3% | viability, T/C [28] 55.1% | viability, T/C [29] 49.4% | viability, T/C [31] 32.3% | viability, T/C [32] 39.4% | viability, T/C [33] 38.9% | viability, T/C [34] 34% | viability, T/C [35] 36.1%
2.74 µM: IC50 (second compound 3.16 µM)
< 0.0316 µM: IC50 (second compound 10 µM)

Cn1nccc1Nc1nccc(-c2ccn(C(CO)c3ccc(Cl)c(F)c3)c(=O)c2)n1 (stereo unspecified) + Cc1nc(NC(=O)N2CCCC2C(N)=O)sc1-c1ccnc(C(C)(C)C(F)(F)F)c1
7.54 µM: IC50 (second compound 1 µM)
< 0.0316 µM: IC50 (second compound 3.16 µM) | IC50 (second compound 10 µM)
> 10 µM: IC50 (second compound 0.0316 µM) | IC50 (second compound 0.1 µM) | IC50 (second compound 0.316 µM)
inactive: viability, T/C [1] 87% | viability, T/C [2] 91% | viability, T/C [3] 91% | viability, T/C [4] 97.9% | viability, T/C [5] 104% | viability, T/C [6] 66% | viability, T/C [7] 87.4% | viability, T/C [8] 85.7% | viability, T/C [9] 79.8% | viability, T/C [10] 90.6% | viability, T/C [11] 81.3% | viability, T/C [12] 62.4% | viability, T/C [13] 74.7% | viability, T/C [14] 66.6% | viability, T/C [15] 81.7% | viability, T/C [16] 72.8% | viability, T/C [17] 79.4% | viability, T/C [18] 57.6% | viability, T/C [19] 70.8% | viability, T/C [20] 61.9% | viability, T/C [21] 63.2% | viability, T/C [22] 64.6% | viability, T/C [23] 58% | viability, T/C [24] 47.3% | viability, T/C [25] 42.2% | viability, T/C [26] 46.1% | viability, T/C [27] 56.9% | viability, T/C [28] 45% | viability, T/C [29] 41.9% | viability, T/C [30] 33.5% | viability, T/C [31] 34.4% | viability, T/C [32] 37.2% | viability, T/C [33] 34.3% | viability, T/C [34] 23.6% | viability, T/C [35] 24.5% | viability, T/C [36] 11.8%

Cn1cnc2c(F)c(Nc3ccc(Br)cc3Cl)c(C(=O)NOCCO)cc21 + CC(Nc1ccc2c(c1)OCCn1cc(N3C(=O)OCC3C(F)F)nc1-2)C(N)=O
1.5 µM: IC50 (second compound 0.0316 µM)
< 0.00949 µM: IC50 (second compound 0.316 µM) | IC50 (second compound 1 µM)
> 3 µM: IC50 (second compound 0.00316 µM)
0.558 µM: IC50 (second compound 0.1 µM)
2.42 µM: IC50 (second compound 0.01 µM)
inactive: viability, T/C (second compound 0.00316 µM, first compound 0.00949 µM) 81.4% | viability, T/C (second compound 0.00316 µM, first compound 0.03 µM) 73.8% | viability, T/C (second compound 0.00316 µM, first compound 0.0949 µM) 86.3% | viability, T/C (second compound 0.00316 µM, first compound 0.3 µM) 79.6% | viability, T/C (second compound 0.00316 µM, first compound 0.949 µM) 72.4% | viability, T/C (second compound 0.00316 µM, first compound 3 µM) 52.1% | viability, T/C (second compound 0.01 µM, first compound 0.00949 µM) 81.7% | viability, T/C (second compound 0.01 µM, first compound 0.03 µM) 71.2% | viability, T/C (second compound 0.01 µM, first compound 0.0949 µM) 78.5% | viability, T/C (second compound 0.01 µM, first compound 0.3 µM) 76.9% | viability, T/C (second compound 0.01 µM, first compound 0.949 µM) 73.8% | viability, T/C (second compound 0.01 µM, first compound 3 µM) 44.5% | viability, T/C (second compound 0.0316 µM, first compound 0.00949 µM) 66.1% | viability, T/C (second compound 0.0316 µM, first compound 0.03 µM) 60.7% | viability, T/C (second compound 0.0316 µM, first compound 0.0949 µM) 77.9% | viability, T/C (second compound 0.0316 µM, first compound 0.3 µM) 65.2% | viability, T/C (second compound 0.0316 µM, first compound 0.949 µM) 55.1% | viability, T/C (second compound 0.0316 µM, first compound 3 µM) 42.4% | viability, T/C (second compound 0.1 µM, first compound 0.00949 µM) 58.9% | viability, T/C (second compound 0.1 µM, first compound 0.03 µM) 54.7% | viability, T/C (second compound 0.1 µM, first compound 0.0949 µM) 58.4% | viability, T/C (second compound 0.1 µM, first compound 0.3 µM) 51.7% | viability, T/C (second compound 0.1 µM, first compound 0.949 µM) 47.8% | viability, T/C (second compound 0.1 µM, first compound 3 µM) 31.4% | viability, T/C (second compound 0.316 µM, first compound 0.00949 µM) 49.9% | viability, T/C (second compound 0.316 µM, first compound 0.03 µM) 47.6% | viability, T/C (second compound 0.316 µM, first compound 0.0949 µM) 47.5% | viability, T/C (second compound 0.316 µM, first compound 0.3 µM) 46.3% | viability, T/C (second compound 0.316 µM, first compound 0.949 µM) 30.8% | viability, T/C (second compound 0.316 µM, first compound 3 µM) 18.2% | viability, T/C (second compound 1 µM, first compound 0.00949 µM) 42.5% | viability, T/C (second compound 1 µM, first compound 0.03 µM) 40% | viability, T/C (second compound 1 µM, first compound 0.0949 µM) 37% | viability, T/C (second compound 1 µM, first compound 0.3 µM) 38% | viability, T/C (second compound 1 µM, first compound 0.949 µM) 29.1% | viability, T/C (second compound 1 µM, first compound 3 µM) 13.3%
